Active and inactive are the calls of the source.
Columns and labels:
[1] = biological target: T1, Ubiquitin-conjugating enzyme E2 N (Homo sapiens, UniProt P61088); format: functional;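 note: Dose-response confirmation in a TR-FRET assay detecting UBC13-driven polyubiquitin chain formation, inhibition measured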
T1 sequence (P61088 whole entry): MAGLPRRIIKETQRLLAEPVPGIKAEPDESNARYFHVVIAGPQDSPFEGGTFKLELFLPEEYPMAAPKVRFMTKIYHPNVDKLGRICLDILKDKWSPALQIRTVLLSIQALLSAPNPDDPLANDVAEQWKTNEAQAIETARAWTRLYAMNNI

[2] = biological target: T2, Heat shock factor protein 1 (Mus musculus, UniProt P38532); experiment: decrease of HSF1-responsive luciferase luminescence – cell-based, NIH3T3, dose retest, confirmation (AID 2382); format: functional;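 note: NIH3T3 fibroblasts with HSF1-driven luciferase reporter stressed by proteasome inhibitor MG132; luminescence from HSF1-driven luciferase expression after 8 hours of MG132 stress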
T2 sequence (P38532 whole entry): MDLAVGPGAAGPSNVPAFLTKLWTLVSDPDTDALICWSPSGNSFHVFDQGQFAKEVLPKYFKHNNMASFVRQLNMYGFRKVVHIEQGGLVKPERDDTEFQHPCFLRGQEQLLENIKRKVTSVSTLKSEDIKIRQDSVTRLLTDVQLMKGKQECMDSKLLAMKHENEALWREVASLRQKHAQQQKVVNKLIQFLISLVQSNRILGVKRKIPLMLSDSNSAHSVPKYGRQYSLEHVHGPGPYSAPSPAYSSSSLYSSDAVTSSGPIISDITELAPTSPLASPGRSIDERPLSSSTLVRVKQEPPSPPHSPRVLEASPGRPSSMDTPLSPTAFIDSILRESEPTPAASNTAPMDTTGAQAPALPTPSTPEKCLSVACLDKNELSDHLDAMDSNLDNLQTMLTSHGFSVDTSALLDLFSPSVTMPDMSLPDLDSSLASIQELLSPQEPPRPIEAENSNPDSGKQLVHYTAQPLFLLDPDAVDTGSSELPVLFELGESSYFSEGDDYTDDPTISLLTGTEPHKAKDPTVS

[3] = biological target: FAD-linked sulfhydryl oxidase ALR (Homo sapiens, UniProt P55789); experiment: ALR-catalysed DTT oxidation blockers – biochemical, H2O2 detection, luminescence, cherry-pick, dose response (AID 493248)
Sequence of FAD-linked sulfhydryl oxidase ALR (P55789 whole entry): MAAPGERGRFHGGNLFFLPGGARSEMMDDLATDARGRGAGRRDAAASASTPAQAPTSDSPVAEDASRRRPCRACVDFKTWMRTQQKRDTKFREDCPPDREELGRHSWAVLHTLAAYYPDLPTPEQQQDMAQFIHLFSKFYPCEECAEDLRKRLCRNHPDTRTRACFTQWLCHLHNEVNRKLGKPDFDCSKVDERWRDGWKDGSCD

H9c2 = experiment: cells; format: functional, cell-based; details: Rattus norvegicus, H9c2, Myocardium
[4] = biological target: T2, Heat shock factor protein 1; experiment: enhancement of HSF1-driven luciferase signal – cell-based, NIH3T3, luminescence, dose retest, confirmation (AID 435004); format: functional;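 note: stress induced by proteasome inhibitor MG132 added 30 min after compound; luciferase reporter driven by HSF1 response element in NIH3T3 cells; actives raise luminescence as potentiators of the MG132 stress response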
[5] = biological target: T3, Polyadenylate-binding protein 1 (Homo sapiens, UniProt P11940); experiment: MLLE binding blockers, Cy5 peptide tracer – biochemical, fluorescence polarization, Cy5-PAM2 peptide, secondary, miRNA deadenylation inhibitor project, dose response (AID 602260); format: functional; details: read-out: IC50_Mean
T3 sequence (P11940 whole entry, the tested form may be a part): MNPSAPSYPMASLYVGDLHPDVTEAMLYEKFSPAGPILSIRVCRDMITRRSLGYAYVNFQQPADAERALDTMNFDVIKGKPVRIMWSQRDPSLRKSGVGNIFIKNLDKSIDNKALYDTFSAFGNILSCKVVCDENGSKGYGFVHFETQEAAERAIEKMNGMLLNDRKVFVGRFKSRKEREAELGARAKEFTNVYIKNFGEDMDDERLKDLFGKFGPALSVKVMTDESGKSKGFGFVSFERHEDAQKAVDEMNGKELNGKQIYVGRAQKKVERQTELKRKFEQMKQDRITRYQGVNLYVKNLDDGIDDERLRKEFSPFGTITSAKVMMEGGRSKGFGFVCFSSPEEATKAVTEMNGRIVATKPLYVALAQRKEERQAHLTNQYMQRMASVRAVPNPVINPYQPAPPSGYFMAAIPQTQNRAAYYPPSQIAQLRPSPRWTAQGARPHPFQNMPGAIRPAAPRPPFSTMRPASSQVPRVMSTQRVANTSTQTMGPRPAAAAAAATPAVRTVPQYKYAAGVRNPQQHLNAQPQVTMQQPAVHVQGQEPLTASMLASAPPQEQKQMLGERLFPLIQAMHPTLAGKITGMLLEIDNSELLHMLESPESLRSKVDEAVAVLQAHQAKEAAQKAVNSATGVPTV

[6] = biological target: T3, Polyadenylate-binding protein 1; experiment: MLLE domain peptide-binding blockers, IC50 – biochemical, fluorescence polarization, FITC-PAM2 peptide, dose response (AID 602259); format: functional; details: read-out: IC50_Mean
[7] = biological target: T4, Rac GTPase-activating protein 1 (Homo sapiens, UniProt Q9H0H5); experiment: blockers of MgcRacGAP-driven Rac1 GTP hydrolysis – biochemical, ADP Hunter fluorescence, primary and confirmatory, confirmation (AID 624330); format: functional
T4 sequence (Q9H0H5 whole entry): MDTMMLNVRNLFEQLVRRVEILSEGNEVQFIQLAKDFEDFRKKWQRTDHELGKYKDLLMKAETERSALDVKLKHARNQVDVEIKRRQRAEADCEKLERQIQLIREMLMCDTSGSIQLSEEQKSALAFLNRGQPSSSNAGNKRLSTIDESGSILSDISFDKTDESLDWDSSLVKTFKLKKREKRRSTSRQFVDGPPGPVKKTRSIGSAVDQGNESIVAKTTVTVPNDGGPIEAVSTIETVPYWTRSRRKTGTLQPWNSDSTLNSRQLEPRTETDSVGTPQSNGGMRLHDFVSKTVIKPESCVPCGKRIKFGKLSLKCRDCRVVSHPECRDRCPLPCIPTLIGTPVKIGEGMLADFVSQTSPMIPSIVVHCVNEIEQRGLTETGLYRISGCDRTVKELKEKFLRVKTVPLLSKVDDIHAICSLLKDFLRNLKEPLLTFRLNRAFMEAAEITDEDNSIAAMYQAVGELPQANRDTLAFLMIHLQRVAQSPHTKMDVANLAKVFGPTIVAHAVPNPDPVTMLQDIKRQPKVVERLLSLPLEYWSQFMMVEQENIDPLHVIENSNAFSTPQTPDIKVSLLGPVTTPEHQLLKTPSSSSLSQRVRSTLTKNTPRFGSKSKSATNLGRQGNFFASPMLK

Vero = experiment: cells; format: functional; details: Chlorocebus sabaeus
cells = format: functional
[8] = test system: Streptococcus sp. 'group A'; experiment: Streptococcus pyogenes SK(-)GAS viability under kanamycin – luminescence, BacTiterGlo, confirmation, counter-screen for streptokinase expression inhibitor project, dose response (AID 1900); format: functional, organism-based
Streptococcus = experiment: GAS UMAA2166 growth inhibition – luminescence, BacTiterGlo, counter-screen for streptokinase expression inhibitor project, dose response (AID 1915); format: functional, organism-based;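 note: potency for reduction of bacterial viability or growth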
Large T antigen = Large T antigen (Simian virus 40, UniProt P03070); format: functional, Betapolyomavirus macacae;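 note: Confirmatory-stage PubChem screen for compounds that inhibit SV40 T antigen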
Sequence of Large T antigen (P03070 whole entry): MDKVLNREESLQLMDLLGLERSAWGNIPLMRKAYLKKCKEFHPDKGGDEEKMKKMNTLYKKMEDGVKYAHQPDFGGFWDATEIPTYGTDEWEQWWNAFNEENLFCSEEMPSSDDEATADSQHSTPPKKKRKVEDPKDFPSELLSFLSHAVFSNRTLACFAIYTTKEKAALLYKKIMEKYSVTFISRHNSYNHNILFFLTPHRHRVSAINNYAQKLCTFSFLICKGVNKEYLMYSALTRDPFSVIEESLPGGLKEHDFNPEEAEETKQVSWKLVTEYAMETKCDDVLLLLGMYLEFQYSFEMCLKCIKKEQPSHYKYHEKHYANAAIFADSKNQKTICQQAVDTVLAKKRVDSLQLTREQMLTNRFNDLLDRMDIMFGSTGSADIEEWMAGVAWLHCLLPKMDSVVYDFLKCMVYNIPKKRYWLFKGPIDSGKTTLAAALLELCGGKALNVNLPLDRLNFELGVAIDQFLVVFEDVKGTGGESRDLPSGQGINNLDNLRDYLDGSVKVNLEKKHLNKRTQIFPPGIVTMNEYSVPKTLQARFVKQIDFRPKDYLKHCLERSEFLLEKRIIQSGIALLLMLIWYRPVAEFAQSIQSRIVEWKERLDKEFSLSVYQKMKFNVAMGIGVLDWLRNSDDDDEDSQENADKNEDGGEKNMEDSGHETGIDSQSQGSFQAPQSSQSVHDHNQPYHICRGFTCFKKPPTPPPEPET

[9] = viability of uninfected HEp-2 cells – cell-based, HTS, cytotoxicity control for RSV inhibitor project, dose response (AID 2410); format: functional; details: human respiratory syncytial virus
[10] = viability of HCT116 lacking mutant beta-catenin – cell-based, human colon tumor, dose response (AID 1045); format: functional;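 note: HCT116 colon tumor cells with beta catenin knocked out; cells exposed to compound for 60 hours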
[11] = viability of PTEN-deleted HCT116 cells – cell-based, HCT116 PTEN knockout, dose response (AID 1047); format: functional;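 note: HCT116 colon tumor cells with PTEN knocked out; cells exposed to compound for 60 hours before readout; potency for loss of cell viability measured by luminescence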
Cytochrome P450 2C9 = Cytochrome P450 2C9 (Homo sapiens, UniProt P11712)
Sequence of Cytochrome P450 2C9 (P11712 whole entry): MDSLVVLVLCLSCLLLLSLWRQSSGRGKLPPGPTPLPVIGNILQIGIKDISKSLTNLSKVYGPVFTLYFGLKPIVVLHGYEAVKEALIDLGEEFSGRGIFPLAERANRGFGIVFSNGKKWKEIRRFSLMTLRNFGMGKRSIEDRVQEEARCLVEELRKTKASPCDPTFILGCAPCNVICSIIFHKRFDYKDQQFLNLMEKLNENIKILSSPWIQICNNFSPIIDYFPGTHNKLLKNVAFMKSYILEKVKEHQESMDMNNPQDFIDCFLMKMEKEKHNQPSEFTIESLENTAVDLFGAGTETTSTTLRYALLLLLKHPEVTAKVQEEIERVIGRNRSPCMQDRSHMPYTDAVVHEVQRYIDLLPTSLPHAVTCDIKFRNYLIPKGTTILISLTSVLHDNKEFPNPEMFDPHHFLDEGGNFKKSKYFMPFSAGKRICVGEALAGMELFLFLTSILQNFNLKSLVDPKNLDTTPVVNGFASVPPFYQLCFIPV

[12] = Luminescence Cell-Based Dose Retest to Confirm Inhibitors of Cancer Stem Cells. [Related pubchem assays (depositor defined):AID2717, AID2721]; format: functional; details: Homo sapiens
INS1 = experiment: INS-1E survival protection against cytokine death – cell-based, luminescence, retest, dose response (AID 449756); format: functional; details: Rattus norvegicus;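 note: cell death triggered by IL-1 beta plus TNF-alpha plus IFN-gamma mixture; protective hits raise ATP signal compared with cytokine alone wells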

## CCCCC(=O)Nc1ccc2c3c(cccc13)C(=O)N2CC
[1]
  IC50: > 20 µM (inactive)

## CCn1c(S)nnc1-c1ccc2[nH]c(C)c(C)c2c1
[2]
  EC50: > 195 µM (not active)
[3]
  AC50: 2.49 µM (active)

## O=C(/C=C/NNC(=O)c1ccccc1)c1ccc(Br)cc1
H9c2
  IC50: 12.4 µM (active)
[4]
  EC50: 39.1 µM (active)

## CC(=O)Nc1ccc(SCCN2CC[C@@H](C(C)(C)C)CCC2=O)cc1
[3]
  AC50: 0.25 µM (active)
[5]
  IC50: > 66 µM (inactive)
[6]
  IC50: > 66 µM (inactive)

## COc1ccc(OC(=O)COc2cc(C)ccc2C)cc1
[7]
  IC50: 37.7 µM (active)

## O=C(CCC(=O)N1CCOc2ccc(Cl)cc21)NCCCN1CCC(Cc2ccccc2)CC1
[1]
  IC50: > 20 µM (inactive)
Vero
  CC50: 18.9 µM (active)

## CCN(CC)S(=O)(=O)c1ccc(C)c(NC(=O)CN2CCN(C)CC2)c1
[7]
  IC50: 118 µM (active)

## COc1cccc(COC(=O)c2sc3nc4n(c(=O)c3c2C)CCC4)c1OC
cells
  IC50: 4.36 µM (active)
[8]
  EC50: 1.6 µM (active)
Streptococcus
  EC50: 8.48 µM (active)

## O=C(Nc1ccncc1)C1CCN(S(=O)(=O)c2cccc(C(F)(F)F)c2)CC1
[1]
  IC50: > 20 µM (inactive)

## CCc1ccc(/C=N/NC(=O)Cc2cccn2C)cc1
[3]
  AC50: 13.4 µM (active)

## COc1ccc(NCCc2ccccn2)cc1
Large T antigen
  IC50: 19.3 µM (active)

## CCC1(C)N=C(N)Nc2nc3cc(C)c(C)cc3n21 (stereo not drawn)
[4]
  EC50: > 260 µM (inactive)
[3]
  AC50: 4.1 µM (active)

## CCN1CCN(CCOc2ccc(Br)cc2C)CC1
[7]
  IC50: 73.2 µM (active)

## O=C1/C(=C/c2ccccc2F)SC(=S)N1CCC(=O)N1CCCCC1CCO (stereo not drawn)
Vero
  CC50: 25 µM (active)

## O=C(Nc1ccc(Cl)c(Cl)c1)Oc1ccc(NC(=O)c2ccco2)cc1
Large T antigen
  IC50: > 100 µM (active)

## Nc1nc2ccc(-c3nc4ccccc4o3)cc2s1
[3]
  AC50: 2.44 µM (active)

## CN(C)c1ccc(NC(=O)CC2NCCNC2=O)cc1 (stereo not drawn)
Large T antigen
  IC50: 10.1 µM (active)

## O=C1CCCC2=C1C(c1ccc(Cl)cc1)n1c(s/c(=C\c3ccc4ccncc4c3)c1=O)=N2 (stereo not drawn)
[4]
  EC50: 146 µM (active)
[9]
  CC50: 31.8 µM (active)
Vero
  CC50: > 25 µM (active)

## Cc1cc(C(=O)Nc2nnc(-c3ccccc3)s2)no1
[3]
  AC50: 18.9 µM (active)

## Nc1ccc2[nH]c(-c3cccs3)nc2c1
H9c2
  IC50: 15.5 µM (active)
Large T antigen
  IC50: 11.9 µM (active)

## CCOC(=O)N1CCN(S(=O)(=O)c2ccc(C(=O)Nc3nc4c(s3)CC(C)CC4)cc2)CC1 (stereo not drawn)
[10]
  EC50: 1.7 µM (active)
[11]
  EC50: 1.25 µM (active)

## O=C1c2ccccc2C(=O)C12OC2c1ccc(Cl)cc1Cl (stereo not drawn)
[10]
  EC50: 20.3 µM (active)
[11]
  EC50: 29.6 µM (active)

## CCOc1cc2c(cc1O)C(=NOC)CC1C2CCC2(C)C(O)CCC12 (stereo not drawn)
Vero
  CC50: 5.94 µM (active)

## Cc1ccc(S(=O)(=O)N(C)C)cc1NC(=O)CSc1ncc(C(F)(F)F)cc1Cl
[10]
  EC50: 647 µM (active)
[11]
  EC50: 88.7 µM (active)

## COc1ccc(C(=O)COC(=O)c2ccc(NC(=O)c3ccccc3)cc2)cc1
Cytochrome P450 2C9
  AC50: 1.41 µM (inconclusive)
[10]
  EC50: 49.9 µM (active)
[11]
  EC50: 41.1 µM (active)

## COc1ccccc1NS(=O)(=O)c1ccc(C)c(C(=O)N2CCN(c3ccc(O)cc3)CC2)c1
[7]
  IC50: 24.2 µM (active)
[3]
  AC50: 0.022 µM (active)

## Cc1ccc(Nc2c(N)c(=O)oc3ccccc23)cc1
[4]
  EC50: > 260 µM (inactive)
[10]
  EC50: 12.3 µM (active)
[11]
  EC50: 13.6 µM (active)

## CCC(=O)Nc1ccc(SC#N)cc1C
[3]
  AC50: 0.497 µM (active)
[5]
  IC50: > 66 µM (inactive)
[6]
  IC50: > 66 µM (inactive)

## COc1ccc(S(=O)(=O)N/N=C(/C)c2ccncc2)c(OC)c1
[3]
  AC50: 0.832 µM (active)

## CN(C)/N=C/c1ccc(N2CCOCC2)cc1
[7]
  IC50: 51.2 µM (active)

## CC(=O)Oc1c(-c2ccco2)oc2ccccc2c1=O
cells
  IC50: 23.2 µM (active)

## CNC(C)Cc1ccccc1Sc1ccc(O)cc1 (stereo not drawn)
Large T antigen
  IC50: 94.4 µM (active)
[3]
  AC50: 3.15 µM (active)
Cytochrome P450 2C9
  AC50: 28.2 µM (inconclusive)

## CCN(CC)C(=O)CC(c1ccc(N(C)C)cc1)c1c(OC)cc(OC)c2ccc(=O)oc12 (stereo not drawn)
[3]
  AC50: 3.89 µM (active)

## COCCN(Cc1nc(O)c2ccccc2n1)C(=O)COc1ccccc1-c1ccccc1
Vero
  CC50: > 25 µM (active)

## CC(C)C(=O)Nc1ccc(O)c(-c2csc(N)n2)c1
Large T antigen
  IC50: 46.3 µM (active)

## Nc1nc(-c2ccco2)cs1
Large T antigen
  IC50: 79.2 µM (active)

## O=C(c1ccco1)N1CCN(Cc2cccc([N+](=O)[O-])c2)CC1
[7]
  IC50: 127 µM (active)

## Cc1cc2nc(NCCCO)n(CC(=O)c3cc(C(C)(C)C)c(O)c(C(C)(C)C)c3)c2cc1C
[1]
  IC50: > 20 µM (inactive)
[12]
  AC50: 3.14 µM (active)
INS1
  AC50: 8.03 µM (active)

## O=P1(c2ccccc2)Nc2ccccc2N1c1ccccc1 (stereo not drawn)
[7]
  IC50: 28.8 µM (active)

## CCOC(=O)C1CCN(Cc2ccc(-c3ccccc3)cc2)CC1
[7]
  IC50: 151 µM (active)

## CCCc1cc(C(=O)Nc2ccccc2SC)no1
cells
  IC50: 10.5 µM (active)

## CCC(/C=C1\Sc2ccc(OC)cc2N1CCCS(=O)(=O)[O-])=C\c1sc2ccc(OC)cc2[n+]1CC
[3]
  AC50: 8.75 µM (active)
INS1
  AC50: 3.3 µM (active)

## Nc1cc(CN2C(=O)c3ccccc3C2=O)cc(Cl)c1O
Large T antigen
  IC50: 8.42 µM (active)

## CC(=O)Nc1ccc(NC(=O)C(C)OC(=O)COc2ccc(Nc3ccccc3)cc2)cc1 (stereo not drawn)
[7]
  IC50: 111 µM (active)

## CCC(C)[C@H]1CNCCN1CCc1cc(C(F)(F)F)cc(C(F)(F)F)c1 (stereo partly drawn)
[1]
  IC50: > 20 µM (inactive)

## CCCn1c2ccccc2c2nc3ccccc3nc21
[1]
  IC50: > 20 µM (inactive)
[9]
  CC50: > 50 µM (active)

Reference: ChEMBL document CHEMBL1201862, “PubChem BioAssay data set” (2004)
